Laboratory results published in patent US20090258883A1, “1H-Indole-Pyridinecarboxamide and 1H-Indole-Piperidinecarboxamide Compounds” (LES LABORATOIRES SERVIER, priority 2005, published 2009).
Marks after values point to notes of the source that are not given here.

How the values were obtained:
[1] = tested on: tyrosine hydroxylase (TH) protein; experiment: Induction of tyrosine hydroxylase (TH) in LC, SN and VTA of the mouse brain; format: in vivo, Balb/C mouse; conditions: for amount of TH in LC section 1: LC section 1 (posterior-to-anterior); for amount of TH in LC section 1 / amount of TH, LC, total: i.p. 20 mg/kg; for amount of TH in LC section 1 / amount of TH in LC section 2 / amount of TH in LC section 3 / amount of TH in LC section 4 / amount of TH in LC section 5 / amount of TH in LC section 6 / amount of TH in LC section 7 / amount of TH in LC section 8 / amount of TH in LC section 9 / amount of TH in LC section 10 / amount of TH in LC section 11 / amount of TH, LC, total: three days after single injection; for amount of TH in LC section 1 / amount of TH in LC section 2 / amount of TH in LC section 3 / amount of TH in LC section 4 / amount of TH in LC section 5 / amount of TH in LC section 6 / amount of TH in LC section 7 / amount of TH in LC section 8 / amount of TH in LC section 9 / amount of TH in LC section 10 / amount of TH in LC section 11 / amount of TH, LC, total / TH induction in the SN / TH induction in the VTA: relative to mean value of control group; for amount of TH in LC section 2: LC section 2, i.p. 20 mg/kg; for amount of TH in LC section 3: LC section 3, i.p. 20 mg/kg; for amount of TH in LC section 4: LC section 4, i.p. 20 mg/kg; for amount of TH in LC section 5: LC section 5, i.p. 20 mg/kg; for amount of TH in LC section 6: LC section 6, i.p. 20 mg/kg; for amount of TH in LC section 7: LC section 7, i.p. 20 mg/kg; for amount of TH in LC section 8: LC section 8, i.p. 20 mg/kg; for amount of TH in LC section 9: LC section 9, i.p. 20 mg/kg; for amount of TH in LC section 10: LC section 10, i.p. 20 mg/kg; for amount of TH in LC section 11: LC section 11, i.p. 20 mg/kg; for TH induction in the SN: substantia nigra; for TH induction in the SN / TH induction in the VTA: single i.p. injection; for TH induction in the VTA: ventral tegmental area
Excerpt: A search is made among the compounds for those which are capable of bringing about an increase in the tyrosine hydroxylase (TH) protein in the locus coeruleus (LC), substantia nigra (SN) and ventral tegmental area (VTA) of the brain of the Balb/C mouse. The animals used are consanguinal male mice of the pure Balb/C strain (Charles River Laboratories) aged 6 weeks at the time of treatment.
The mice are given a single injection, by the intraperitoneal route, of the compound under test, dissolved in 0.04M HCl solution (corresponding control: 0.04M HCl), if the compound is sufficiently soluble, or in olive oil 90%/DMSO 10% (corresponding control: olive oil 90%/DMSO 10%) for compounds that are insoluble in an aqueous medium. The volume injected is 100 μl. The test groups comprise 10 animals.
Three days after the injection of each compound, all the animals are sacrificed by decapitation. The brains are removed and then frozen in an isopentane solution at −30° C. for 45 seconds and subsequently stored at −80° C.
Serial coronal sections 20 microns thick are then taken using a cryomicrotome. Each structure of interest is then sampled along the posterior-anterior axis of the brain by taking sections at 80-micron spacings in the case of the LC and at 80- or 160-micron spacings in the case of the VTA and SN. The limits of those structures are those described in the atlas of Franklin and Paxinos. The total proteins of each of those sections are transferred by direct collection of the sections to a nitrocellulose filter (Millipore). The amounts of TH present in each sample are measured by immunochemistry, fluorimetric detection and image analysis.

[2] = tested on: muscarinic (M) receptors; experiment: Affinity for receptors, displacement of labelled specific ligand: muscarinic; format: binding; conditions: concentration 10^−5 M
Protocol: (§1) The affinity for receptors is determined according to customary methods of relations between the specific ligand and the receptor, which may be of animal origin or a human recombinant. The affinity was determined by the method of displacement of the labelled specific ligand by the compound under test and expressed by the dissociation constant KI. The receptor affinity was accordingly studied for 28 conventional receptors.

[3] = tested on: sigma (σ) receptors (ligand: haloperidol); experiment: Affinity for receptors, displacement of labelled specific ligand: sigma; format: binding
Protocol: as §1

[4] = Predicted metabolic stability, mouse hepatic microsomes; format: in vitro ADME; conditions: 10^−7 M, mouse hepatic microsomes 0.33 mg of prot/ml, NADPH
Protocol: (§2) The predicted metabolic stability is tested by incubation of the compounds at a concentration of 10^−7M in the presence of mouse, rat or human hepatic microsomes (0.33 mg of prot/ml). After addition of NADPH (nicotinamide adenine dinucleotide phosphate, reduced form), samples are taken at 0, 5, 15, 30 and 60 minutes. The enzymatic reaction is stopped using methanol (V/V). The protein is precipitated by centrifugation and the supernatant is analysed by LC-MS-MS.

[5] = Predicted metabolic stability, human hepatic microsomes; format: in vitro ADME; conditions: 10^−7 M, human hepatic microsomes 0.33 mg of prot/ml, NADPH
Protocol: as §2

[6] = biological target: 5HT receptors (type 5HT2A) (Homo sapiens, UniProt P28223); experiment: Affinity for receptors, displacement of labelled specific ligand: 5HT2A; format: binding; conditions: for inhibition at 10 µM: concentration 10^−5 M; for inhibition at 0.1 µM: concentration 10^−7 M
[7] = biological target: dopaminergic receptors (type D1) (Homo sapiens, UniProt P21728); experiment: Affinity for receptors, displacement of labelled specific ligand: D1; format: binding; conditions: for inhibition at 10 µM: concentration 10^−5 M; for inhibition at 0.1 µM: concentration 10^−7 M
[8] = biological target: dopaminergic receptors (type D2) (Homo sapiens, UniProt P14416); experiment: Affinity for receptors, displacement of labelled specific ligand: D2; format: binding; conditions: for inhibition at 10 µM: concentration 10^−5 M; for inhibition at 0.1 µM: concentration 10^−7 M
[9] = tested on: confluent endothelial cells from bovine capillaries; experiment: Predicted crossing of the blood-brain barrier (BBB); format: in vitro ADME; parameters: key: high; intermediate; low; conditions: 20 μM in upper compartment, filter with bovine capillary endothelial cells, 10-60 minutes, LC-MS-MS
Protocol: The substances are incubated at 20 μM in the upper compartment of a double container, the upper compartment being separated from the lower compartment either solely by a polycarbonate filter or by the same filter covered with confluent endothelial cells from bovine capillaries. Evaluation of the permeability kinetics is carried out by means of LC-MS-MS quantification of the unchanged substance in the lower compartment after 10, 20, 30, 40 and 60 minutes.
The results are given in the form of the categories: high, intermediate, low.

Sequence of dopaminergic receptors (type D1) (P21728 whole entry): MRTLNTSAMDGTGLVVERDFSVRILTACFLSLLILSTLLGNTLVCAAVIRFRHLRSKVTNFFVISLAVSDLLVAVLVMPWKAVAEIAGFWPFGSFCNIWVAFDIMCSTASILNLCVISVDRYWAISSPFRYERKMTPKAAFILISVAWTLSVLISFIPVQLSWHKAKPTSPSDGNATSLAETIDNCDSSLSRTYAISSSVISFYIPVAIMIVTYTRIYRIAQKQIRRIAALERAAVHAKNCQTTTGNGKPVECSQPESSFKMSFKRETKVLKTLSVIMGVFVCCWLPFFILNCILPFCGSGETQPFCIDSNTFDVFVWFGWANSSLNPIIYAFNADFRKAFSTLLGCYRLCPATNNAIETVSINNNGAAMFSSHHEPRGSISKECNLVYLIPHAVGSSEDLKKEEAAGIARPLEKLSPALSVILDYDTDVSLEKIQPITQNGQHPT
Sequence of 5HT receptors (type 5HT2A) (P28223 whole entry): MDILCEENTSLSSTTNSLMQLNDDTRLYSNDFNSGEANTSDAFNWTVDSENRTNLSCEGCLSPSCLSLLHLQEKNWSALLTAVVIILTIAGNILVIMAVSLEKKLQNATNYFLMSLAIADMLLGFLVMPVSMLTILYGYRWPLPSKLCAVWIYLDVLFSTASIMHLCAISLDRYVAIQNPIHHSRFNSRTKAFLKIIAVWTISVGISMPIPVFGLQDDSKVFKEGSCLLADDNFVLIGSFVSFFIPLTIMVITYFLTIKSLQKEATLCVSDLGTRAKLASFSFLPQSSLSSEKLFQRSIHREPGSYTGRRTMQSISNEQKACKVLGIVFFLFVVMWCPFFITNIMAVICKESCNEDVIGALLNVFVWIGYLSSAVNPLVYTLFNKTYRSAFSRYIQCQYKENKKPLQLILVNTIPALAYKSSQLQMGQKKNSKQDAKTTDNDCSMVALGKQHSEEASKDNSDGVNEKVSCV
Sequence of dopaminergic receptors (type D2) (P14416 whole entry): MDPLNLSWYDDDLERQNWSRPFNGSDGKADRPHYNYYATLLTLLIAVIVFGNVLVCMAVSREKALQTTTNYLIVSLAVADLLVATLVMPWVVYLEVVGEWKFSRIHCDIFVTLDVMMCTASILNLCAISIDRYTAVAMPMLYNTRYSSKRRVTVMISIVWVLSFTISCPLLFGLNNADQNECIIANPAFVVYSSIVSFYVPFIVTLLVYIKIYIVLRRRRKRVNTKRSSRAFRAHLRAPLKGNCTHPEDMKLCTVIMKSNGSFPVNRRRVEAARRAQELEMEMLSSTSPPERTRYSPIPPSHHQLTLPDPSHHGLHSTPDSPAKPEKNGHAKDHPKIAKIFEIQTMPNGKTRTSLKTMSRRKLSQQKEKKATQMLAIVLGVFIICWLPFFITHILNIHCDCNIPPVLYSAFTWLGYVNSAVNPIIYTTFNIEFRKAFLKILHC

Row | Compound | amount of TH in LC section 1 [1] | amount of TH in LC section 2 [1] | amount of TH in LC section 3 [1] | amount of TH in LC section 4 [1] [%] | amount of TH in LC section 5 [1] | amount of TH in LC section 6 [1] | amount of TH in LC section 7 [1] | amount of TH in LC section 8 [1] | amount of TH in LC section 9 [1] | amount of TH in LC section 10 [1] | amount of TH in LC section 11 [1] | amount of TH, LC, total [1] | inhibition at 10 µM [6] [%] | inhibition at 0.1 µM [6] [%] | inhibition at 10 µM [7] [%] | inhibition at 0.1 µM [7] [%] | inhibition at 10 µM [8] [%] | inhibition at 0.1 µM [8] [%] | TH induction in the SN [1] | TH induction in the VTA [1] | also measured
1 | CN(C)CCN1CCCC(C(=O)Nn2ccc3ccccc32)C1 (stereo not shown) [Example 22, 1-[2-(Dimethylamino)ethyl]-N-(1H-indol-1-yl)-3-piperidinecarboxamide] | 79% | 101% | 112% | 98 | 108% | 113% | 146** % | 120% | 135* % | 179** % | 145* % | 119** % | – | – | – | – | – | – | – | – | –
2 | CN1CCN(CCN2CCCC(C(=O)Nn3ccc4ccccc43)C2)CC1 (stereo not shown) [Example 25, N-(1H-indol-1-yl)-1-[2-(4-methyl-1-piperazinyl)ethyl]-3-piperidine-carboxamide] | – | – | – | – | – | – | – | – | – | – | – | – | 14 | 12 | < 10 | < 10 | < 10 | < 10 | – | – | % inhibition M [2]: 27%; % inhibition σ ([3]; concentration 10^−5 M): 100%; % inhibition σ ([3]; concentration 10^−7 M): 17%; % metabolic stability predicted using hepatic microsomes, Mouse [4]: 85%; % metabolic stability predicted using hepatic microsomes, Human [5]: 63%
3 | CN1CCC=C(C(=O)NN2CCc3ccccc32)C1 [Example 15, N-(2,3-dihydro-1H-indol-1-yl)-1-methyl-1,2,5,6-tetrahydropyridine-3-carboxamide] | – | – | – | – | – | – | – | – | – | – | – | – | – | – | – | – | – | – | 91% | 88* % | –
4 | O=C(Nn1ccc2ccccc21)C1CCCN(CCN2CCN(CCO)CC2)C1 (stereo not shown) [Example 26, 1-{2-[4-(2-Hydroxyethyl)-1-piperazinyl]ethyl}-N-(1H-indol-1-yl)-3-piperidinecarboxamide] | 152* % | 98% | 136** % | 107 | 154** % | 133* % | 127* % | 96% | 132% | 110% | 89% | 121** % | – | – | – | – | – | – | – | – | –
5 | CN1CC[C@H](C(=O)Nn2ccc3ccccc32)[C@H](c2ccc(F)cc2)C1 [Example 38, (3R,4S)-3-(4-Fluorophenyl)-N-(1H-indol-1-yl)-1-methylpiperidine-4-carboxamide] | – | – | – | – | – | – | – | – | – | – | – | – | – | – | – | – | – | – | – | – | melting point: 134 °C
6 | CN1CCC=C(C(=O)Nn2ccc3ccccc32)C1 [Example 1, N-(1H-indol-1-yl)-1-methyl-1,2,5,6-tetrahydropyridine-3-carboxamide] | 57% | 72% | 128% | 128 | 158* % | 152* % | 131% | 107% | 106% | 95% | 55% | 121% | < 10 | < 10 | < 10 | < 10 | < 10 | < 10 | 155** % | 125% | TH induction in the SN, in words [1]: markedly induces TH; TH induction in the VTA, in words [1]: markedly induces TH; TH induction in the medial LC (sections 4, 5 and 6), in words ([1]; medial LC): markedly induces TH; % inhibition M [2]: 23%; % inhibition σ ([3]; concentration 10^−5 M): 44%; degree of crossing of the BBB (category) [9]: high; % metabolic stability predicted using hepatic microsomes, Mouse [4]: 40%; % metabolic stability predicted using hepatic microsomes, Human [5]: 70%
7 | C=CCN1CCCC(C(=O)Nn2ccc3cc(Cl)ccc32)C1 (stereo not shown) [Example 12, 1-Allyl-N-(5-chloro-1H-indol-1-yl)piperidine-3-carboxamide] | 57% | 70% | 80% | 110 | 114% | 92% | 95% | 82% | 98% | 94% | 26% | 90% | < 10 | < 10 | < 10 | < 10 | < 10 | < 10 | 122* % | 95% | TH induction in the LC, in words [1]: without increasing expression of the protein; TH induction in the SN, in words [1]: induce TH in the SN; TH induction in the VTA, in words [1]: without increasing expression of the protein; % inhibition M [2]: 51%; % inhibition σ ([3]; concentration 10^−5 M): 85%; % inhibition σ ([3]; concentration 10^−7 M): 18%
8 | CN1CCC=C(C(=O)Nn2ccc3cc(F)ccc32)C1 [Example 7, N-(5-fluoro-1H-indol-1-yl)-1-methyl-1,2,5,6-tetrahydropyridine-3-carboxamide] | 113% | 139* % | 112% | 119 | 138** % | 122% | 141** % | 131* % | 96% | 125% | 106% | 123** % | < 10 | < 10 | < 10 | < 10 | < 10 | < 10 | 88* % | 94% | TH induction in the LC, in words [1]: induce TH only in the LC; degree of crossing of the BBB (category) [9]: high
9 | O=C(Nn1ccc2ccccc21)C1CCCN(CCN2CCCCC2)C1 (stereo not shown) [Example 24, N-(1H-indol-1-yl)-1-[2-(1-piperidyl)ethyl]-3-piperidinecarboxamide] | 165* % | 157* % | 120% | 127 | 145* % | 131** % | 139* % | 116% | 139% | 96% | 94% | 129** % | – | – | – | – | – | – | – | – | degree of crossing of the BBB (category) [9]: high
